Laboratory results: patent publication US4710489A, “Glutathione delivery system” (Cornell Research Foundation, Inc., priority 1985, dated 1987)

Legend:
[1] = test system: level of liver glutathione; settings: for glutathione level of the liver: fasted mice, acetaminophen 2.5 mmol/kg i.p., test compound 10 mmol/kg one-half hour later
Method: In this example, fasted mice were injected intraperitoneally with acetaminophen (2.5 mmol/kg), and one-half hour later (indicated by arrow in FIG. 3), they were given GSH monomethyl ester, GSH, L-cysteine, L-cysteine methyl ester (10 mmol/kg) or an equivalent volume of 0.15 M NaCl (control). Tissue GSH levels were determined at the indicated intervals on groups (3) of mice; values are means ±S.D.

GSH level in the liver = GSH level in the liver after sublethal acetaminophen (Example 7); format: in vivo; settings: acetaminophen 2.5 mmol/kg i.p.; for GSH level in the liver: starved mice, test compound 10 mmol/kg i.p. half an hour later
Method: Groups of three starved mice were intraperitoneally treated with 2.5 mmol/kg (less than the lethal dose) of acetaminophen, and half an hour later 10 mmol/kg of the test compound was intraperitoneally administered to the mice. […] When other thiols such as L-cysteine and L-cysteine methyl ester were administered under the same conditions, the GSH level in the liver was markedly low.

[2] = test system: glutathione levels of the liver and kidney; test: Glutathione levels of liver and kidney of mice pretreated with buthionine sulfoximine (Example 2); format: in vivo
Description: Controls were again given saline, with tissue levels of GSH being determined at the indicated intervals. Values are means ±S.D., using groups of 3 mice each.

[3] = test system: GSH levels in the liver and in the kidney; test: GSH levels in liver and kidney after 35S-labeled test compound, GSH synthesis inhibited by buthionine sulfoximine (Example 5); format: in vivo; settings: mice, i.p. 7.5 mmol/kg, two hours after treatment, buthionine sulfoximine 2 mmol/kg 14 and 4 hours before dissection
Method: Groups of 3 or 4 mice, each having a body weight of 18 to 22g, were starved over a period of 12 hours and treated intraperitoneally with a dose of 7.5 mmol/kg of the test compound labeled by ^35 S (GSH labeled by ^35 S was used as the starting material). Two hours after the treatment, the test mice were dissected, and the liver and kidney were taken out. These organs were homogenized in 5 fold volume of 5% sulfosalicylic acid and centrifuged over a period of 5 minutes to give 0.05 ml of a supernatant fluid. The supernatant fluid was admixed with 0.95 ml of water and 4 ml of monofluorine scintillation fluid, and the ^35 S content was assayed by the use of an LKB scintillation counter. On the other hand, the supernatant fluid was treated with monobromobimane and subjected to HPLC to determine the amount of the test compound. The intracellular GSH synthesis was inhibited by administering intraperitoneally 2 mmol/kg of buthionine sulfoximine 14 hours and 4 hours before the dissection.

[4] = test system: GSH level in the liver and in the kidney; test: GSH level in liver and kidney of starved mice (Example 6); format: in vivo; settings: i.p. 10 mmol/kg, 2 to 3 hours after the administration
Method: The test compound was dissolved in sterile water to give a test solution. Groups of 3 mice, each having a body weight of 20 to 25 g, were starved over a period of 24 hours and treated intraperitoneally with a dose of 10 mmol/kg of the test compound. Mice were dissected by every two hours, and the liver and kidney were taken out. GSH analysis was performed on each of the organs.

mice [5] = test: Survival of starved mice after lethal dose of acetaminophen (Example 8); format: in vivo; settings: acetaminophen 5 mmol/kg i.p., test compound 10 mmol/kg one hour later, 15 mice, 7 days
Description: Starved mice were intraperitoneally treated with 5 mmol/kg (lethal dose) of acetaminophen and, one hour later, with 10 mmol/kg of the test compound.

[6] = test system: glutamic-pyruvic acid transaminase (GPT) activity in serum; test: Serum GPT activity after acetaminophen (Example 9, Table 1); format: in vivo, Male ICR mice; settings: half an hour after acetaminophen 2.5 mmol/kg, blood 8 hours after acetaminophen, ± SD
Method: Male ICR mice, each having a body weight of 30 to 40 g, were starved over a period of 15 hours and intraperitoneally treated with 2.5 mmol/kg of acetaminophen. The acetaminophen was used as a solution in Cremophore buffer (i.e. physiological saline solution containing 10% Cremophore and 1.5% ethanol). Half an hour later a designed amount of the test compound was intraperitoneally administered to the mice. The test compound was used as a solution in physiological saline adjusted to pH 6.5. […] Then, the glutamic-pyruvic acid transaminase (GPT) activity in serum was assayed. The results are shown in Table 1 as a percentage to that of the control group to which only acetaminophen was administered.
Note: Figure is a percentage of blood GPT activity to that of Control
Group (± Standard Deviation (n = 4 - 16)).

mice [7] = test system: mice
[8] = test system: glutathione level of the liver and kidney; test: Glutathione levels of liver and kidney of fasted mice given glutathione ester or glutathione (Example 1, Comparative Example 1); format: in vivo; settings: for glutathione in the kidney / glutathione level of the liver: fasted mice, i.p. 10 millimoles per kilogram, 2 hours after administration, vs saline controls
Method: A solution of the glutathione ester was prepared in aseptic water. […] At intervals of 2 hours, as shown in FIGS. 1(a) and (b), the animals were decapitated and the liver and kidney tissues were removed and analyzed for glutathione. Using groups of 3 mice each, values are given as means ±S.D.

[9] = buthionine sulfoximine 2 mmol/kg, before ester
[10] = mice pretreated with 2 mmol/kg buthionine sulfoximine, ester 10 mmol/kg i.p. 4 hours after the inhibitor

Structure (SMILES)	glutathione level of the liver [1]	GSH level in the liver (GSH level in the liver)	GSH level in the kidney [3]	GSH level in the liver [3]	GSH level in the kidney [4]	GSH level in the liver [4]	survival (mice [5])	percentage of blood GPT activity to that of Control Group ([6]; Dosage 0.01 mmol/kg i.p.) [%]	percentage of blood GPT activity to that of Control Group ([6]; Dosage 0.1 mmol/kg i.p.) [%]	percentage of blood GPT activity to that of Control Group ([6]; Dosage 1 mmol/kg i.p.) [%]	percentage of blood GPT activity to that of Control Group ([6]; Dosage 0.3 mmol/kg i.p.) [%]	also measured
N[C@@H](CS)C(=O)O [L-cysteine, reference compound]	much less	markedly low										
CCCCS(=N)(=O)CCC(N)C(=O)O (centres unmarked) [buthionine sulfoximine, reference compound]												glutathione level of the kidney after the inhibitor [2, 9]: decreased to a very low value; glutathione level of the liver after the inhibitor [2, 9]: decreased to a very low value
CC(C)COC(=O)CNC(=O)[C@H](CS)NC(=O)CC[C@H](N)C(=O)O [GSH monoisobutyl ester, Isobutyl γ-L-glutamyl-L-cysteinylglycinate]		marked elevation	more than 2.0 μmol/g	more than 1.0 μmol/g	substantial elevation	substantial elevation	survived	84.1 ± 13.0	44.8 ± 14.8	3.6 ± 0.4		
COC(=O)[C@@H](N)CS [L-cysteine methyl ester, reference compound]	much less	markedly low										
CC(=O)Nc1ccc(O)cc1 [acetaminophen, reference compound]												level of liver glutathione after acetaminophen alone ([1]; sublethal dose 2.5 mmol/kg i.p., control given 0.15 M NaCl): marked decrease; GSH level in the liver after acetaminophen alone (GSH level in the liver; control group given 0.15 M saline): Marked fall; lethality of acetaminophen alone (mice [7]; 5 mmole per kilogram, 40 mice, within 7 days): all of the mice died
CCOC(=O)CNC(=O)[C@H](CS)NC(=O)CC[C@H](N)C(=O)O [glutathione monoethyl ester, L-γ-Glutamyl-L Cysteinyl Glycyl Ethyl Ester]												effects on tissue glutathione levels compared with glutathione monomethyl ester ([8]; comparison of monoethyl with monomethyl ester): about the same
N[C@@H](CCC(=O)N[C@@H](CS)C(=O)NCC(=O)O)C(=O)O [GSH, L-γ-glutamyl-L-cysteinyl-glycine, reference compound]			0.560 µmol/g	0.582 µmol/g	slight elevation	No elevation			105.3 ± 20.1	4.2 ± 0.5	68.5 ± 16.3	glutathione in the kidney [8]: only a slight effect; glutathione level of the liver [8]: no effect
COC(=O)CNC(=O)[C@H](CS)NC(=O)CC[C@H](N)C(=O)O [glutathione monomethyl ester]	increased markedly											glutathione in the kidney [8]: increased substantially; glutathione level of the liver [8]: increased substantially; glutathione level in kidney [2, 10]: substantial increase; glutathione level in liver [2, 10]: substantial increase; fatalities (mice [7]; acetaminophen 5 mmole per kilogram, ester 10 mmole per kilogram 1 hour later, 15 mice, 7 days): no fatalities
CC(C)OC(=O)CNC(=O)[C@H](CS)NC(=O)CC[C@H](N)C(=O)O [GSH monoisopropyl ester, Isopropyl γ-L-glutamyl-L-cysteinylglycinate]		marked elevation	more than 2.0 μmol/g	more than 1.0 μmol/g	substantial elevation	substantial elevation	survived	75.2 ± 15.0	19.8 ± 7.9	3.8 ± 0.5	8.8 ± 3.5	percentage of blood GPT activity to that of Control Group ([6]; Dosage 0.03 mmol/kg i.p.): 51.2 ± 15.6%
CCCCCCOC(=O)CNC(=O)[C@H](CS)NC(=O)CC[C@H](N)C(=O)O [GSH mono-n-hexyl ester, n-Hexyl γ-L-glutamyl-L-cysteinylglycinate]		marked elevation	more than 2.0 μmol/g	more than 1.0 μmol/g	substantial elevation	substantial elevation	survived	100.6 ± 31.3	60.6 ± 15.8	3.0 ± 0.3	13.2 ± 0.3	percentage of blood GPT activity to that of Control Group ([6]; Dosage 0.03 mmol/kg i.p.): 82.3 ± 33.5%
